The term IC50 denotes the concentration that inhibits the measured activity by half.

The values below come from patent US20250049811A1, “METHODS OF TREATING PANCREATIC CANCER BY USING BET INHIBITOR AND PARP INHIBITOR” (NATIONAL CHENG KUNG UNIVERSITY, priority 2023, published 2025).

For one test, the system named is MIA-PaCa2 cells. Nature of the test: MTT cytotoxicity / cell viability assay, MIA-PaCa2. The conditions noted are these: Homo sapiens, MIA PaCa-2, 72 hours post-treatment, read-out: IC50 values in specified pancreatic cancer cell line. Type of test: cell-based. On the procedure: (§1) Four human PDAC cell lines were used in this study, including MIA-PaCa2, Panc-1, AsPC1, and BxPC3, in which the MIA-PaCa2, Panc-1 and AsPC1 comprises a KRAS mutation (i.e., KRAS mutant cell lines), and the BxPC3 has a wild-type KRAS gene (see, for example, Wen-Hsuan Chang et al., Cancer Lett. (2021), 517: 66-77; and Radu Pirlog et al., J Clin Invest. (2022), 132(14): e161454). The MIA-PaCa2 cells were cultured in RPMI1640 medium containing 10% fetal bovine serum (FBS) and 1% penicillin/streptomycin. The AsPC1, BxPC3 and Panc-1 cells were cultured in DMEM high glucose medium supplemented with 10% FBS and 1% penicillin/streptomycin.
(§2) Cytotoxicity and cell proliferation were determined by using 3-(4,5-dimethylthiazol-2-yl)-2,5-diphenyltetrazolium bromide (MTT) assay. Specifically, the MIA-PaCa2 and Panc-1 were seeded in a 96-well plate (5×10^3 cells/well). […] The resulting formazan crystals were dissolved using dimethyl sulfoxide (DMSO), and the absorbance was measured at 495 nm using a microplate reader. The cell proliferation ability was quantified as the optical density (OD) value. The cytotoxicity induced by the treatments was determined by calculating the percentage of viable cells (dividing the optical density of the drug-treated samples by that of the control samples). […]

For a further test, the system named is Panc-1 cells. Nature of the test: MTT cytotoxicity / cell viability assay, Panc-1. Type of test: cell-based. Particulars: Homo sapiens, 72 hours post-treatment, read-out: IC50 values in specified pancreatic cancer cell line. On the procedure:
as §1, §2

A further test concerns AsPC1 cells. Briefly: MTT cytotoxicity / cell viability assay, AsPC1. It is filed as cell-based. The conditions noted are these: Homo sapiens, 72 hours post-treatment, read-out: IC50 values in specified pancreatic cancer cell line. On the procedure: as §1, §2
The subject of a further test is BxPC3 cells. Nature of the test: MTT cytotoxicity / cell viability assay, BxPC3. Type of test: cell-based. Particulars: Homo sapiens, BXPC-3, 72 hours post-treatment, read-out: IC50 values in specified pancreatic cancer cell line. On the procedure: as §1, §2
The test system of test [1] is MIA-PaCa2 subcutaneous tumor. Briefly: Subcutaneous tumor model. It is filed as in vivo, NOD-SCID male mice. The conditions noted are these: oral, five times per week for three weeks; mivebresib 1 mg/Kg, rucaparib 10 mg/Kg; FIG. 2. On the procedure:
The MIA-PaCa2 cells (2×10^6) were suspended in 10 μL phosphate buffered saline (PBS), and then subcutaneously injected to NOD-SCID male mice (6-8 weeks old). After 14 days (the tumor size was about 100-150 mm^3), PBS, mivebresib (1 mg/Kg), rucaparib (10 mg/Kg), or the combination of mivebresib and rucaparib (1 mg/Kg of mivebresib plus 10 mg/Kg of rucaparib) was orally administered to the mice five times per week, for three consecutive weeks. The tumor size was measured using caliper every 2-3 days, until the mice met humane endpoint criteria and were euthanized.
Two tumor models, including subcutaneous and orthotropic tumor models, were used in the example to evaluate the anti-tumor effect of mivebresib and rucaparib on pancreatic cancer. As described in “Materials and Methods”, the tumor-bearing mice were respectively administered with PBS, mivebresib, rucaparib, and the combination of mivebresib and rucaparib. The tumor sizes were monitored by caliper and IVIS® imaging system. The results were respectively depicted in FIG. 2 (subcutaneous tumor model) and FIG. 3 (orthotropic tumor model).

The test system of a further test is pancreatic cancer. Briefly: Overall survival of pancreatic cancer patients with neoadjuvant chemotherapy. It is filed as in vivo, human. The conditions noted are these: patients with cisplatin treatment (without: 18.96 months); data not shown. On the procedure: Whether neoadjuvant chemotherapy (a chemotherapy that a cancer patient receives before the primary course of surgical treatment) would affect the overall survival of cancer patients was determined in the example. According to the results, the overall survivals of patient with or without cisplatin treatment were respectively 26.36 and 18.96 months (data not shown). Then, the patients receiving the platinum-based therapy were further divided into responder group and non-responder group.

Consider `CCS(=O)(=O)Nc1ccc(Oc2ccc(F)cc2F)c(-c2cn(C)c(=O)c3[nH]ccc23)c1` [Mivebresib, mivebresib], for which the IC50 in the test on MIA-PaCa2 cells is 260 nM; in the test on Panc-1 cells, 1410 nM; with AsPC1 cells, 191 nM; in the test on BxPC3 cells it was 273 nM. Also, the “tumor growth (tumor size by caliper)” value in test [1] is reported as “inhibited tumor growth”.

On to `N.N.[Cl][Pt][Cl]` [cisplatin], for which the overall survival with pancreatic cancer worked out at 26.36 months.

`CNCc1ccc(-c2[nH]c3cc(F)cc4c3c2CCNC4=O)cc1` [Rucaparib, rucaparib]: the IC50 turned out to be 2440 nM in the test on MIA-PaCa2 cells, 1980 nM in the test on Panc-1 cells, 2360 nM with AsPC1 cells and 2510 nM with BxPC3 cells. For the same molecule, the “tumor growth (tumor size by caliper)” value in test [1] was “inhibited tumor growth”.
